Test results as given in patent US20100221736A1, “METHOD FOR PREDICTING SUSCEPTIBILITY TO A MENTAL DISORDER” (priority 2007, published 2010).

Columns and labels:
Type in all cases: cell-based, human
GCLM = GCLM protein expression by Western Blot in skin fibroblasts after t-BHQ treatment; settings: for increase of GCLM protein expression induced by t-BHQ treatment: t-BHQ vs baseline; for GCLM protein expression: t-BHQ treated (50 μM, 18 h)
Method: (§1) Human fibroblast cultures were established from skin biopsies as described in Tosic et al.[8] Cells were grown with DMEM medium (0.5 l medium completed with 10 ml Ultroser-G serum, 5 ml Penicillin/Streptomycin, 5 ml sodium pyruvate (100 mM)) at 37° C. in a humidified atmosphere containing 5% CO2/95% air. Human fibroblasts near confluence after five passages were treated for 18 h with 50 μM t-BHQ in 0.05% DMSO (t-BHQ condition) or 0.05% DMSO alone (baseline condition). Cell lysis was performed on ice. Cells were washed with PBS and scraped with lysis buffer (2.37 ml scraping buffer (Tris-HCl 50 mM, pH 7.2; NaCl 150 mM; NaF 10 mM; EDTA 2 mM; EGTA 2 mM; Triton X100 1%); 100 μl Complete (1 tablet/2 ml H2O); 25 μl PMSF 100 mM; 2.5 μl DTT 1 mM). Lysates were homogenized 10 times with a 25-gauge needle, and cellular debris were cleared by centrifugation (20,000 g, 14 min, 4° C.). Protein concentration was determined by BCA protein assay. Equal amounts of protein (50 μg) were dissolved in 5× Laemmli sample buffer, separated by 12% SDS-PAGE, and electro-transferred to a PVDF membrane. Membranes were blocked (BSA 1%/milk powder 3%) overnight at 4° C. Following incubation with primary and secondary antibodies, protein was visualized by using the ECL detection system and protein abundance was quantified by densitometry analysis (Multi Genius, Bio Imaging System, Syngene). A fibroblast protein pool from 5 different individuals was used as an external control in all experiments. The results were normalized to a -Tubulin, and reported relative to the specific protein levels measured in the protein pool.

skin fibroblasts = assay: GSH content in cultured skin fibroblasts after t-BHQ treatment; settings: for GSH content: t-BHQ treated (50 μM, 18 h)
Method: (§2) Human fibroblast cultures were established from skin biopsies as described in Tosic et al.[8] Cells were grown with DMEM medium (0.5 l medium completed with 10 ml Ultroser-G serum, 5 ml Penicillin/Streptomycin, 5 ml sodium pyruvate (100 mM)) at 37° C. in a humidified atmosphere containing 5% CO2/95% air. Human fibroblasts near confluence after five passages were treated for 18 h with 50 μM t-BHQ in 0.05% DMSO (t-BHQ condition) or 0.05% DMSO alone (baseline condition). Cells were washed once with phosphate-buffer saline (PBS), trypsinized and pelleted. The pellet was washed once, taken up into PBS and frozen. GSH content and GCL activity was determined in protein extracts from fibroblasts cultures, with a fluorescence-based microtiter plate assay according to White and colleagues [White et al, 2003]. GCL activity was determined as the difference between GSH synthesis in unblocked and GSH synthesis in BSO treated wells per min and per mg protein. Protein concentration has been determined by BCA protein assay. In addition, GSH contents under untreated conditions were also routinely measured in all participants that had spent skin fibroblasts (33 controls and 39 patients) by a colorimetric GSH assay kit (Calbiochem, San Diego, USA).

[1] = test system: glutamate cysteine ligase (GCL); assay: GCL activity in cultured skin fibroblasts after t-BHQ treatment; settings: for increase of GCL activity after t-BHQ treatment (factor): t-BHQ vs baseline
Method: as §2

GCLC = GCLC protein expression by Western Blot in skin fibroblasts after t-BHQ treatment; settings: for increase of GCLC protein expression by t-BHQ treatment (factor): t-BHQ vs baseline
Method: as §1

[2] = fibroblasts of control subjects
[3] = fibroblasts of schizophrenia patients
[4] = t-BHQ treatment, subjects with GCLC GAG TNR genotypes 7/7 & 7/9
[5] = t-BHQ treatment, subjects with genotypes 7/8, 8/8, 8/9 & 9/9

CC(C)(C)c1cc(O)ccc1O [t-BHQ, tert-butylhydroquinone]
increase of GCLM protein expression induced by t-BHQ treatment (GCLM; control subjects): 73% | increase of GCLM protein expression induced by t-BHQ treatment (GCLM; patients): 74% | GCLM protein expression (GCLM; [2]): 108.0 ± 24.0 α-Tubulin corrected arbitrary units | GCLM protein expression (GCLM; [3]): 107.6 ± 24.1 α-Tubulin corrected arbitrary units | GSH content (skin fibroblasts; [2]): 144.9 ± 21.5 nmol GSH/mg protein | GSH content (skin fibroblasts; [3]): 136.3 ± 19.1 nmol GSH/mg protein | increase of GSH content after t-BHQ treatment (factor) (skin fibroblasts; very similar in patients and controls, t-BHQ vs baseline): 2.53 | increase of GCL activity after t-BHQ treatment (factor) ([1]; controls): 3.45 | increase of GCL activity after t-BHQ treatment (factor) ([1]; patients): 2.95 | GCL activity ([1]; t-BHQ treated (50 μM, 18 h), fibroblasts of control subjects, average and standard deviation): 0.847 ± 0.26 nmol GSH/min/mg protein | GCL activity ([1]; t-BHQ treated (50 μM, 18 h), fibroblasts of schizophrenia patients, average and standard deviation): 0.627 ± 0.16 nmol GSH/min/mg protein | GCL activity [1, 4]: 0.784±0.246 | GCL activity [1, 5]: 0.584±0.141 | increase of GCLC protein expression by t-BHQ treatment (factor) (GCLC; controls): 1.44 | increase of GCLC protein expression by t-BHQ treatment (factor) (GCLC; patients): 1.32 | GCLC protein expression (GCLC; t-BHQ treated (50 μM, 18 h), fibroblasts of control subjects): 64.1 ± 17.5 α-Tubulin corrected arbitrary units | GCLC protein expression (GCLC; t-BHQ treated (50 μM, 18 h), fibroblasts of schizophrenia patients): 45.4 ± 15.8 α-Tubulin corrected arbitrary units | GCLC protein expression (GCLC; [4]): 58.9±19.0 | GCLC protein expression (GCLC; [5]): 45.6±13.3
